Source: paper PMC9423655, “Huntington’s disease phenotypes are improved via mTORC1 modulation by small molecule therapy” (PLoS ONE, 2022)

Key:
[1] = biological target: T1, Sestrin2/GATOR2 interaction (Homo sapiens, UniProt P58004); test: Intact cells-based Sestrin2/GATOR2 protein-protein interaction assay, Flag-WDR24 293T cells; assay type: cell-based; conditions: 10 minutes
T1 construct: endogenous in cells; host or cells: Flag-WDR24 293T (HEK293T) cells
T1 sequence (P58004 1-480): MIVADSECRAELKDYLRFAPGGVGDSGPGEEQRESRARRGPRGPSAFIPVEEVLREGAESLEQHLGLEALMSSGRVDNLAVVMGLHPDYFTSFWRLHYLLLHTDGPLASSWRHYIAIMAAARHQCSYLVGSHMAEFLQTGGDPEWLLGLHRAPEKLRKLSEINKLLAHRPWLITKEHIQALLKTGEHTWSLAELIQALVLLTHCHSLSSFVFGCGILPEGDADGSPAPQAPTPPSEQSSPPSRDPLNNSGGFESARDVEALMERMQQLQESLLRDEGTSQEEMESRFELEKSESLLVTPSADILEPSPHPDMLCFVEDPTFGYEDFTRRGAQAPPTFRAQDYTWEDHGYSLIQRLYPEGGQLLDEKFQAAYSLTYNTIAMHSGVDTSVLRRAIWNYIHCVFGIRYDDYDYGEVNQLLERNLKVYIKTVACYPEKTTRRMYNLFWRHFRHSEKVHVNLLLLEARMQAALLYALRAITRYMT
Experimental: Flag-WDR24 293T cells were washed and placed in leucine-free DMEM supplemented 10% dFBS for 50 minutes followed by treatment with NV-5297, leucine or vehicle for 10 minutes. Cells were rinsed once with ice-cold PBS and immediately lysed with Triton lysis buffer (1% Triton, 10 mM β-glycerol phosphate, 10 mM pyrophosphate, 40 mM Hepes pH 7.4, 2.5 mM MgCl2 and 1 tablet of EDTA-free protease inhibitor). The cell lysates were cleared by centrifugation at 13,200 rpm at 4°C in a microcentrifuge for 10 minutes. Prior to immunoprecipitations, an aliquot of lysate was taken for SDS-PAGE and immunoblotting for pS6K1, S6K1 and tubulin. For anti-FLAG immunoprecipitations, the FLAG-M2 affinity gel was washed 3 times with Triton lysis buffer, and 30 μl of a 50/50 slurry of the FLAG-M2 affinity gel was then added to approximately 2 mg of clarified cell lysates and incubated with rotation for 3 hours at 4°C. Following immunoprecipitation, the beads were washed one time with Triton wash buffer containing 500 mM NaCl. Immunoprecipitated proteins were denatured, resolved by SDS-PAGE, and analyzed by immunoblotting.
Next, Sestrin2/GATOR2 protein-protein interactions in response to NV-5297 were measured using cell-free assays and in vitro. For this, HEK293T cells stably expressing flag-WDR24, a component of GATOR2 [44], were used. The cell-free assays utilized Sestrin2/GATOR2 complexes immunoprecipitated from amino acid-starved cells with an anti-flag antibody.

N171-82Q HD mice [2] = test: Chronic 6-week treatment: weight, forelimb grip strength, accelerating rotarod; assay type: in vivo; conditions: N171-82Q mice
Experimental: The initial trial consisted in one week of oral dosing in 12 weeks old N171-82Q males. The chronic 6 weeks treatment (Veh n = 15, NV-5297 n = 14) took place from 6 to 12 weeks of age. The cardiac stress took place in animals from 10 to 12 weeks of age (Veh-Sal n = 9, NV-Sal n = 10, Veh-Iso n = 16, NV-Iso n = 11).
The accelerated rotarod (model 47600; Ugo Basile, Comerio, Italy) test was carried out as previously described. Mice were tested at 5 (baseline) and 12 weeks of age. Briefly, mice were habituated to the test room for an hour. On the first day, mice were trained on the rotarod for 5 minutes at 4 rpm. Mice were then tested in three trials per day (with at least 30 minutes of rest between trials) for four consecutive days. For each trial, the rotarod accelerated from 4 to 40 rpm over 4 minutes with constant speed at 40 rpm for an additional minute. Trials were stopped at 300 seconds. Latency to fall (or two consecutive rotations without running) was recorded for every trial. For grip strength, mice were tested at 5 (baseline), 9 and 12 weeks of age. Mice were habituated to the test room for 1 hour. The mouse held a pull bar with both paws and are then pulled horizontally until they let go of the pull bar. Forelimb grip strength at the peak tension was measured five times per mice (Columbus Instrument). There were at least 30 minutes of rest between trials. The grip strength is calculated as the average of the four highest grip strength recorded.

N171-82Q HD mice [3] = test: Chronic 6-week treatment: striatal volume and MSN area (DARPP-32 histology); assay type: in vivo; conditions: N171-82Q mice, 160 mg/kg daily 6 weeks
Experimental: Mice were perfused with PBS, and tissues were fixed in 4% paraformaldehyde for at least 48 hours. Brains were cryoprotected in a 30% sucrose solution for 24 hours and cryosectioned to 40 μm on a Leica SM2010R microtome. Each section through the striatum was collected and floated out in 30% ethylene glycol/15% sucrose solution sequentially in a 12-well plate. Once sections had been placed in each well, deeper sequential sections were added to wells in the same order, leading to each well containing 7 sections, 480 μm apart. Hearts were bisected transversely, and the apical halves were processed and embedded in paraffin. Heart tissue was sectioned to 5 μm on a Microm HM 355S (Thermo) microtome. […]
Striatal volume were estimated by the Cavalieri method on low-power digital images of DARPP-32-stained sections in ImageJ. A 5000 μm^2 area-per-point grid was superimposed randomly over the image, and number of points overlapping the striatum in each section (5 per animal) was counted. The volume was then calculated using the formula V = ∑p∙t∙A(p), where V = estimated volume, p = points per section, t = space between sections, and A(p) = area-per-point. […]
Average MSN area was calculated from high-power digital images of DARPP-32-stained sections in ImageJ. […] At least 700 cells were measured per brain, and the average MSN area was determined per treatment group.

[4] = oral 160 mg/kg daily for 6 weeks

## CC(C)(C[C@H](N)C(=O)O)C(F)(F)F [NV-5297, (S)-2-amino-5,5,5-trifluoro-4,4-dimethylpentanoic acid]
[1]; added to cell cultures, leucine-starved flag-WDR24 HEK293T cells
  Sestrin2/GATOR2 interaction (GATOR2-associated Sestrin2): disrupted the Sestrin2/GATOR2 interaction in a dose-dependent manner
[1]; leucine-starved flag-WDR24 HEK-293T cells, S1C Fig
  p70S6K1 (T389 pS6K1) level: increased p70S6K1 in a dose-dependent manner
N171-82Q HD mice [2]; 12 weeks of age, oral 160 mg/kg daily for 6 weeks
  accelerating rotarod motor performance over 4-day trial: improved rotarod motor performance
N171-82Q HD mice [2]; NV-5297 treatment, response to reviewers
  adverse effects to the treatment: No mice had explicit adverse effects
N171-82Q HD mice [2]; [4]
  forelimb grip strength: did not impact
  weight loss: did not impact
N171-82Q HD mice [3]
  medium spiny neuron area: no change
  striatal volume relative to vehicle: significant increases
